≈ marks a conversion by molar mass, not a printed value. Like-named read-outs stand apart in the source and are kept apart here.
Tests used:
Assay in all cases: MIC assay
Format in all cases: cell-based
[1] = system: Staphylococcus aureus (MRSA) LUH14616; conditions: for MIC50 / MIC90: Staphylococcus aureus, MRSA
Description: (§1) The exact weighed amount was noted and the volume of solvent to reach a 80 mM dilution calculated. Half of the volume was added first, by adding Tween 80 and let stand for 5 minutes. In a second step, the other half of the volume DMSO was added and resuspended to help the dilution process. The closed tube was inverted 5-10 times and then vortexed very thoroughly for at least 30 seconds. If after this procedure crystals were still visible, the tube was placed in a shaker at 37° C. at 150 rpm for at least 30 minutes (it is indicated if the dissolution period was longer than 2 h). […] In case of Bis(4-Chlorophenyl) thiosulfonate, a lower concentrated stock solution of 2 mM needed to be prepared. For that, the required amount of compound was weighed in and 2% v/v Tween80 and 2% v/v DMSO of the end volume of the stock solution was added to the substance. This mix was heated in a water bath set to 40° C. and occasionally shaken. When the whole amount of the substance reached dissolution, the volume was filled up with growth medium until the end volume. This 2 mM stock solution of Bis(4-Chlorophenyl) thiosulfonate was used in the MIC plate and diluted two-fold, resulting in a testing range of Bis(4-Chlorophenyl) thiosulfonate from 1 mM to 0.002 mM.
(§2) The microorganisms as indicated in Table 4 were used to inoculate a tryptic soy agar (TSA) plate and incubated overnight at 37° C. After incubation 3-5 well-isolated colonies with the same morphology were selected from the TSA plate and resuspended in 2 mL 0.9% saline solution with 3-6 glass beads and vortexed. The optical density at 600 nm (OD600) of the bacterial suspension was measured with a spectrophotometer (Evolution™ 201/220 UV-Visible Spectrophotometer, Thermo Fisher Scientific) and diluted to an OD600 of 0.0008, which resembles 10^6 CFU/mL.
(§3) The MIC assay was performed in a flat-bottom 96-microtiter plate. 50 μL of MHB-II was added into columns 2-11, and 100 μL to column 12 for sterility control. 100 μL of the 8 mM test compound solution (method 1) was added to column 1. A two-fold dilution series of the solution in MHB-II was achieved by resuspending 50 μL of the 8 mM solution from column 1 to column 2. This step was repeated until column 10. The respective concentration of Tween 80 and DMSO in column 1 was 2.5%, which is two-fold diluted throughout the plate. 50 μL of the bacterial suspension was added to column 1-11. The microtiter plates were sealed with adhesive polyethylene film for sealing microplates (Diversified Biotech) and incubated for 24 h at 37° C. After incubation the OD was measured at 600 nm with the Varioskan (Thermo Fisher Scientific). The minimal concentration which causes reduction of final OD600 of the bacterial culture by 50% (MIC50) and by 90% (MIC90) was calculated after normalization of the obtained OD values to the growth control in column 11. This assay was repeated three times in three independent experiments.
(§4) Hereafter, the stock solutions of the compounds were used in three repetitions in a minimal inhibitory concentration (MIC) assay at a 2-fold dilution range with various bacteria from the gram-positive and gram-negative group and a yeast, Candida albicans. The concentrations that show only less than 10% growth after 24 h were considered the MIC90-values, whereas the concentrations that show 50% growth after 24 h when compared to the bacterial growth control were considered the MIC50-values. Escherichia coli and Staphylococcus aureus were used as representatives for a gram-negative bacteria and gram-positive bacteria, respectively. Furthermore, the yeast C. albicans was also tested.
(§5) In an Eppendorf tube between 10-20 mg of the test compound was weighed. Hereafter, the required amount of Tween 80 was added, followed by the amount DMSO. After vigorous shaking, the dissolved and transparent dilutions were diluted 10 times with Mueller Hinton Broth (MHB) for the MIC assay. […]

[2] = system: Streptococcus agalactiae ATCC 13813; conditions: for MIC50 / MIC90: Streptococcus agalactiae, ATCC13813
Description: as §1, §2, §3, §4, §5

[3] = system: Streptococcus uberis ATCC 27985; conditions: for MIC50 / MIC90: Streptococcus uberis, ATCC27985
Description: as §1, §2, §3, §4, §5

[4] = system: Escherichia coli ATCC 25922; conditions: for MIC50 / MIC90: Escherichia coli, ATCC25922
Description: as §1, §2, §3, §4, §5

[5] = system: Acinetobacter baumanni RUH875; conditions: for MIC90 / MIC50: Acinetobacter
Description: as §1, §2, §3, §4, §5

[6] = system: Klebsiella pneumoniae ATCC 13883; conditions: for MIC50 / MIC90: Klebsiella pneumoniae, ATCC13883; for MIC50 / MIC90 / MIC50 Klebsiella pneumoniae / MIC90 Klebsiella pneumoniae: Example 2a, n = 3, ATCC 13883
Description: as §1, §2, §3, §4, §5

[7] = system: Streptococcus Suis Type 2 21-018358-002; conditions: for MIC50 / MIC90: Streptococcus suis
Description: as §1, §2, §3, §4, §5

[8] = Example 2a, n = 3, LUH14616, read-out: MIC90 Staphylococcus aureus (+) (MRSA)
[9] = Example 2a, n = 3, ATCC 13813, read-out: MIC90 Streptococcus agalactiae (+)
[10] = Example 2a, n = 3, ATCC 27985, read-out: MIC90 Streptococcus uberis (+)
[11] = Example 2a, n = 3, ATCC 25922, read-out: MIC90 Escherichia coli
[12] = Example 2b, FIG. 1, no MIC90 detected in the tested range, read-out: Average MIC90 E. coli (Ec)
[13] = RUH875, Example 2b, FIG. 1, no MIC90 detected in the tested range, read-out: Average MIC90 A. baumanni (Ab)
[14] = Example 2a, n = 3, RUH875, read-out: MIC90 Acinetobacter baumanni
[15] = Example 2a, n = 3, 21-018358-002
[16] = Example 2a, n = 3, 21-018358-002, read-out: MIC90 Streptococcus Suis Type 2 (+)

Structure (SMILES)	MIC50 ([1]; Example 2a, n = 3, LUH14616)	MIC90 [1, 8]	MIC50 ([2]; Example 2a, n = 3, ATCC 13813)	MIC90 [2, 9]	MIC50 ([3]; Example 2a, n = 3, ATCC 27985)	MIC90 [3, 10]	MIC50 Staphylococcus aureus (+) (MRSA) ([1]; Example 2a, n = 3, LUH14616)	MIC90 Staphylococcus aureus (+) (MRSA) ([1]; Example 2a, n = 3, LUH14616)	MIC50 Streptococcus agalactiae (+) ([2]; Example 2a, n = 3, ATCC 13813)	MIC90 Streptococcus agalactiae (+) ([2]; Example 2a, n = 3, ATCC 13813)	MIC50 Streptococcus uberis (+) ([3]; Example 2a, n = 3, ATCC 27985)	MIC90 Streptococcus uberis (+) ([3]; Example 2a, n = 3, ATCC 27985)	MIC50 Escherichia coli ([4]; Example 2a, n = 3, ATCC 25922)	MIC90 Escherichia coli ([4]; Example 2a, n = 3, ATCC 25922)	MIC50 Acinetobacter baumanni ([5]; Example 2a, n = 3, RUH875)	MIC90 Acinetobacter baumanni ([5]; Example 2a, n = 3, RUH875)	MIC50 Klebsiella pneumoniae [6]	MIC90 Klebsiella pneumoniae [6]	MIC50 Streptococcus Suis Type 2 (+) [7, 15]	MIC90 Streptococcus Suis Type 2 (+) [7, 15]	other results
Clc1ccc(SSc2ccc(Cl)cc2)cc1 [Bis (4-chlorophenyl) disulfide, Bis(4-chlorophenyl) disulfide]	< 8 µM	190 µM (≈ 54.6 µg/mL)	10 µM (≈ 2.87 µg/mL)	70 µM (≈ 20.1 µg/mL)	20 µM (≈ 5.74 µg/mL)	50 µM (≈ 14.4 µg/mL)															MIC90 ([1]; Example 2b, FIG. 1, no MIC90 detected in the tested range, read-out: Average MIC90 S. aureus (Sau)): > 1000 µM; MIC90 ([2]; Example 2b, FIG. 1, no MIC90 detected in the tested range, read-out: Average MIC90 S. agalactiae (Sag)): > 1000 µM; MIC90 ([3]; Example 2b, FIG. 1, no MIC90 detected in the tested range, read-out: Average MIC90 S. uberis (Su)): > 1000 µM; MIC50 ([4]; Example 2a, n = 3, ATCC 25922): > 4000 µM; MIC90 [4, 11]: > 4000 µM; MIC90 [4, 12]: > 1000 µM; MIC90 [5, 13]: > 1000 µM; MIC50 ([5]; Example 2a, n = 3, RUH875): > 4000 µM; MIC90 [5, 14]: > 4000 µM; MIC50 [6]: > 4000 µM; MIC90 [6]: > 4000 µM; MIC50 [7, 15]: 60 µM (≈ 17.2 µg/mL); MIC90 [7, 16]: 50 µM (≈ 14.4 µg/mL); MIC90 ([7]; Example 2b, FIG. 1, no MIC90 detected in the tested range, read-out: Average MIC90 S. suis (Ss)): > 1000 µM
O=S(=O)(Sc1ccc(Cl)cc1)c1ccc(Cl)cc1 [Bis (4-chlorophenyl) thiosulfonate, Bis(4-chlorophenyl) thiosulfonate]							60 µM	750 µM	160 µM	500 µM	60 µM	500 µM	>1000 µM	>1000 µM	>1000 µM	>1000 µM	>1000 µM	>1000 µM	130 µM	370 µM	
Fc1ccc(SSc2ccc(F)cc2)cc1 [Bis (4-fluorophenyl) disulfide, Bis(4-fluorophenyl) disulfide]	< 8 µM	2330 µM (≈ 593 µg/mL)	210 µM (≈ 53.4 µg/mL)	500 µM (≈ 127 µg/mL)	210 µM (≈ 53.4 µg/mL)	630 µM (≈ 160 µg/mL)															MIC50 ([4]; Example 2a, n = 3, ATCC 25922): 1250 µM (≈ 318 µg/mL); MIC90 [4, 11]: > 4000 µM; MIC90 [4, 12]: > 4000 µM; MIC90 [5, 13]: > 4000 µM; MIC50 ([5]; Example 2a, n = 3, RUH875): 3000 µM (≈ 763 µg/mL); MIC90 [5, 14]: > 4000 µM; Average MIC90 K. pneumoniae (Kp) ([6]; Example 2b, FIG. 1, no MIC90 detected in the tested range): above 4000 μM; MIC50 [6]: > 4000 µM; MIC90 [6]: > 4000 µM; MIC50 [7, 15]: 380 µM (≈ 96.6 µg/mL); MIC90 [7, 16]: 1670 µM (≈ 425 µg/mL)
[O-][S+](Sc1ccc(F)cc1)c1ccc(F)cc1 (stereo not shown) [Bis (4-fluorophenyl) thiosulfinate, Bis(4-fluorophenyl) thiosulfinate]							280 µM (≈ 75.7 µg/mL)	1770 µM (≈ 478 µg/mL)	1040 µM (≈ 281 µg/mL)	1670 µM (≈ 451 µg/mL)	420 µM (≈ 114 µg/mL)	1500 µM (≈ 405 µg/mL)	1000 µM (≈ 270 µg/mL)	>4000 µM	2000 µM (≈ 541 µg/mL)	>4000 µM	2500 µM (≈ 676 µg/mL)	>4000 µM	380 µM (≈ 103 µg/mL)	830 µM (≈ 224 µg/mL)	
O=S(=O)(Sc1ccc(F)cc1)c1ccc(F)cc1 [Bis (4-fluorophenyl) thiosulfonate, Bis(4-fluorophenyl) thiosulfonate]							<8 µM	1270 µM	1330 µM	1670 µM	670 µM	1330 µM	1500 µM	>4000 µM	2830 µM	>4000 µM	>4000 µM	>4000 µM	750 µM	880 µM	

Source: US20260083126A1, “ANTIMICROBIAL COMPOSITIONS” (AHV International B.V., priority 2022, published 2026)
